Marks after values point to notes of the source that are not given here.
How the values were obtained:
Type in all cases: in vivo
[1] = tested on: Puccinia recondite f. sp. tritici (the causal agent of wheat leaf rust); test: Test A: wheat leaf rust, preventive spray on wheat seedlings, visual disease rating; conditions: for Test A rating (100 = 100% disease control, 0 = no disease control relative to the controls): wheat leaf rust, preventive spray on wheat seedlings
From the text: (§1) General protocol for preparing test suspensions for Tests A-D: the test compounds were first dissolved in acetone in an amount equal to 3% of the final volume and then suspended at the desired concentration (in ppm) in acetone and purified water (50/50 mix by volume) containing 250 ppm of the surfactant Trem® 014 (polyhydric alcohol esters). The resulting test suspensions were then used in Tests A-D. Spraying a 200 ppm test suspension to the point of run-off on the test plants was the equivalent of a rate of 800 g/ha.
The test suspension was sprayed to the point of run-off on wheat seedlings. The following day the seedlings were inoculated with a spore suspension of Puccinia recondite f. sp. tritici (the causal agent of wheat leaf rust) and incubated in a saturated atmosphere at 20° C. for 24 h, and then moved to a growth chamber at 20° C. for 7 days, after which time visual disease ratings were made.
(§2) Results for Tests A-E are given in Table A. In the Table, a rating of 100 indicates 100% disease control and a rating of 0 indicates no disease control (relative to the controls). A dash (—) indicates no test results. An asterisk “*” next to the rating value indicates a 40 ppm test suspension was used.

[2] = tested on: Blumeria graminis f. sp. tritici (also known as Erysiphe graminis f. sp. tritici, the causal agent of wheat powdery mildew); test: Test D: wheat powdery mildew, preventive spray on wheat seedlings, visual disease rating; conditions: for Test D rating (100 = 100% disease control, 0 = no disease control relative to the controls): wheat powdery mildew, preventive spray on wheat seedlings
From the text: as §1
The test suspension was sprayed to the point of run-off on wheat seedlings. The following day the seedlings were inoculated with a spore dust of Blumeria graminis f. sp. tritici, (also known as Erysiphe graminis f. sp. tritici, the causal agent of wheat powdery mildew) and incubated in a growth chamber at 20° C. for 8 days, after which time visual disease ratings were made.
as §2

[3] = tested on: Botrytis cinerea (the causal agent of tomato Botrytis); test: Test C: tomato Botrytis, preventive spray on tomato seedlings, visual disease rating; conditions: for Test C rating (100 = 100% disease control, 0 = no disease control relative to the controls): tomato Botrytis, preventive spray on tomato seedlings
From the text: as §1
The test suspension was sprayed to the point of run-off on tomato seedlings. The following day the seedlings were inoculated with a spore suspension of Botrytis cinerea (the causal agent of tomato Botrytis) and incubated in a saturated atmosphere at 20° C. for 48 h, and then moved to a growth chamber at 24° C. for 3 days, after which time visual disease ratings were made.
as §2

[4] = tested on: Septoria tritici (the causal agent of wheat leaf blotch); test: Test B: wheat leaf blotch, preventive spray on wheat seedlings, visual disease rating; conditions: wheat leaf blotch, preventive spray on wheat seedlings
From the text: as §1
The test suspension was sprayed to the point of run-off on wheat seedlings. The following day the seedlings were inoculated with a spore suspension of Septoria tritici (the causal agent of wheat leaf blotch) and incubated in a saturated atmosphere at 24° C. for 48 h, and then moved to a growth chamber at 20° C. for 19 days, after which time visual disease ratings were made.
as §2

[5] = no asterisk (standard test suspension concentration, not 40 ppm)
[6] = asterisk: 40 ppm test suspension
[7] = no asterisk: standard test suspension concentration, 100 = 100% disease control, 0 = no control relative to controls

SMILES | Test A rating (100 = 100% disease control, 0 = no disease control relative to the controls) [1, 5] [%] | Test D rating (100 = 100% disease control, 0 = no disease control relative to the controls) [2, 5] [%] | Test C rating (100 = 100% disease control, 0 = no disease control relative to the controls) [3, 5] [%] | Test B rating (100 = 100% disease control, 0 = no disease control relative to the controls) [4, 5] [%] | Test B rating (100 = 100% disease control, 0 = no disease control relative to the controls) [4, 6] | Test A rating (100 = 100% disease control, 0 = no disease control relative to the controls) [1, 6] | Test D rating (100 = 100% disease control, 0 = no disease control relative to the controls) [2, 6] | Test C rating (100 = 100% disease control, 0 = no disease control relative to the controls) [3, 6] | Test A rating (% disease control, wheat leaf rust) [1, 7] [%] | Test D rating (% disease control, wheat powdery mildew) [2, 7] [%] | Test C rating (% disease control, tomato Botrytis) [3, 7] [%]
Cc1nc(Cl)n(-c2c(F)cc(F)cc2Cl)c1C(O)c1ccc(F)cc1F (racemic) [compound 8] | 100 | 100 | 100 | 100 |  |  |  |  |  |  | 
Cc1nc(Cl)n(-c2c(F)cc(F)cc2Cl)c1C(O)c1ccc(F)cc1Cl (racemic) [compound 9] | 100 | 100 | 100 | 100 |  |  |  |  |  |  | 
Cc1nc(Cl)n(-c2ccc(F)cc2Br)c1C(O)c1ccc(Cl)cc1Cl (racemic) [compound 11] | 99 | 0 | 31 | 68 |  |  |  |  |  |  | 
Cc1ncn(-c2c(F)cc(F)cc2Cl)c1C(O)c1ccc(F)cc1F (racemic) [compound 12] | 99 | 21 | 95 | 100 |  |  |  |  |  |  | 
Cc1cc(F)ccc1C(O)c1c(C)nc(Cl)n1-c1c(F)cc(F)cc1Cl (racemic) [compound 13] | 100 | 100 | 99 |  | 100* % |  |  |  |  |  | 
Cc1cc(F)ccc1C(O)c1c(Cl)nc(Cl)n1-c1c(F)cc(F)cc1Cl (racemic) [compound 14] | 100 | 100 | 99 |  | 100* % |  |  |  |  |  | 
Cc1cc(F)ccc1C(O)c1c(C)ncn1-c1c(F)cc(F)cc1Cl (racemic) [compound 15] | 0 | 0 | 15 |  | 0* % |  |  |  |  |  | 
OC(c1c(F)ccc(Br)c1Cl)c1c(Cl)nc(Cl)n1-c1ccc(F)cc1Cl (racemic) [compound 18] | 100 | 91 | 100 | 100 |  |  |  |  |  |  | 
Cc1cc(F)ccc1C(O)c1c(Cl)nc(Cl)n1-c1c(F)cccc1Cl (racemic) [compound 23] | 100 | 100 | 100 | 100 |  |  |  |  |  |  | 
Cc1nc(Cl)n(-c2c(F)cccc2F)c1C(O)c1c(F)cccc1F (racemic) [compound 24] |  |  |  |  | 100* % | 100* % | 91* % | 100* % |  |  | 
Cc1nc(Cl)n(-c2c(F)cccc2F)c1C(O)c1c(F)ccc(Br)c1F (racemic) [compound 25] |  |  |  |  | 100* % | 99* % | 0* % | 87* % |  |  | 
Cc1nc(Cl)n(-c2c(F)cccc2F)c1C(O)c1ccc(F)cc1F (racemic) [compound 26] |  |  |  |  | 100* % | 100* % | 99* % | 100* % |  |  | 
Cc1nc(Cl)n(-c2ccc(F)cc2Cl)c1C(O)c1c(F)cc(F)cc1F (racemic) [compound 30] | 100 | 100 | 100 | 100 |  |  |  |  |  |  | 
Cc1ncn(-c2ccc(F)cc2Cl)c1C(O)c1ccc(Cl)cc1Cl (racemic) [compound 33] | 100 |  | 100 | 100 |  |  | 0* % |  |  |  | 
Cc1nc(Cl)n(-c2ccc(F)cc2Cl)c1C(O)c1c(F)ccc(Br)c1Cl (racemic) [compound 34] | 99 |  | 99 | 98 |  |  |  |  |  |  | 
Cc1nc(Cl)n(-c2ccc(F)cc2F)c1C(O)c1ccc(F)cc1Cl (racemic) [compound 35] | 100 | 68 | 100 | 100 |  |  |  |  |  |  | 
Cc1nc(Cl)n(-c2ccc(Cl)cc2Cl)c1C(O)c1c(F)cc(Cl)cc1F (racemic) [compound 36] | 99 | 0 | 98 | 100 |  |  |  |  |  |  | 
Cc1nc(Cl)n(-c2ccc(Cl)cc2Cl)c1C(O)c1c(F)ccc(Br)c1Cl (racemic) [compound 37] | 98 | 21 | 91 | 100 |  |  |  |  |  |  | 
COc1cc(F)c(C(O)c2c(Br)ncn2-c2ccc(F)cc2Cl)c(F)c1 (racemic) [compound 232] |  |  |  |  | 59* % | 100* % | 0* % |  |  |  | 
COc1cc(F)c(-n2c(C(O)c3ccc(F)cc3F)cnc2C)c(F)c1 (centres unmarked) [compound 404] |  |  |  |  |  |  |  |  | 98 | 0 | 0

From patent publication US20130143929A1, “FUNGICIDAL IMIDAZOLES” (EI DU PONT DE NEMOURS AND COMPANY, priority 2010, published 2013)
